{"source": "patent US20220305012A1", "about": "“L[…] TREATING SLEEP ISSUES” (EISAI R&D MANAGEMENT CO., LTD., priority 2019, published 2022)", "type_in_all_cases": "in vivo, human", "key": {"[1]": {"test_system": "Subjects Having Insomnia Disorder", "assay": "Example 2: subjective sleep efficiency (sSE), sleep diary", "conditions": "Zolpidem ER 6.25 mg", "source_text": "As used herein, the term “subjective sleep efficiency”, abbreviated as “sSE”, means the proportion of sTST per subjective time spent in bed, calculated as the interval from the time the subject reports attempting to sleep until the time the subject stopped trying to sleep for the night (operationalized as the time the subject got out of bed for the day), and time spent asleep derived from subjective time spent in bed minus sWASO. As used herein, an “improvement of sleep efficiency in Subjective Sleep Efficiency (sSE)” means an increase in sleep efficiency in Subjective Sleep Efficiency (sSE).\n(§1) In some embodiments, sleep diaries were used to assess sleep parameters reported by subjects (i.e., subjective assessments) including subjective sleep onset latency (sSOL), subjective sleep efficiency (sSE), subjective WASO (sWASO), and subjective total sleep time (sTST). Subjects were instructed to complete the Sleep Diary developed based on the consensus Sleep Diary as described in Carney et al., “The consensus sleep diary: standardizing prospective sleep self-monitoring,” Sleep 2012; 35(2):287-302. In some embodiments, the Sleep Diary was used to assess the subject's global perception of quality of sleep on the previous night with the following question: “How would you rate the quality of your sleep last night?” Subjects rated the quality of their sleep on a scale from 1 to 9, with 1 being extremely poor and 9 being extremely good. In some embodiments, the Sleep Diary was used to assess subjective ratings of morning sleepiness with the following question: “How alert/sleepy do you feel this morning?” Subjects rated their sleepiness/alertness level on a Likert scale from 1 to 9, with 1 being extremely sleepy and 9 being extremely alert.\nsSE—subjective sleep efficiency: proportion of sTST per subjective time spent in bed, calculated as the interval from the time the subject reports attempting to sleep until the time the subject stopped trying to sleep for the night (operationalized as the time the subject got out of bed for the day), and time spent asleep derived from subjective time in bed minus sWASO.\n(§2) The treatment period lasted for 31 days. Subjects were randomized in a double-blind manner and received placebo, a tablet containing 5 mg of lemborexant, a tablet containing 10 mg of lemborexant, or a tablet containing 6.25 mg of zolpidem ER.\n(§3) Once home, the subject ingested study drug each night prior to bedtime and completed their sleep diary within 1 hour of waketime."}, "[2]": {"test_system": "Subjects Having Insomnia Disorder", "assay": "Example 2: subjective total sleep time (sTST), sleep diary", "conditions": "Zolpidem ER 6.25 mg", "source_text": "As used herein, the term “subjective total sleep time”, abbreviated as “sTST”, means the derived minutes of sleep from sleep onset until the time the subject stopped trying to sleep for the night. In some embodiments, sTST is derived from data entered in a subject's Sleep Diary.\nas §1\nsTST—subjective total sleep time: derived minutes of sleep from sleep onset until the time the subject stopped trying to sleep for the night.\nas §2, §3"}, "[3]": {"test_system": "Subjects Having Insomnia Disorder", "assay": "Example 2: treatment-emergent adverse events", "conditions": "Zolpidem ER 6.25 mg (N = 263)", "method": "Between 14 and 18 days after completion of the treatment period, subjects returned to the clinic for the end of study visit. The T-BWSQ and eC-SSRS were administered and routine safety assessments were conducted.\nA subject who prematurely discontinued taking study drug was to return to the clinic as soon as practicable after discontinuing study drug. If the subject discontinued due to an adverse event, the adverse event must have been followed to resolution or for 2 weeks, whichever came first. Additionally, subjects who discontinued early underwent a urine drug test."}, "[4]": {"test_system": "Subjects Having Insomnia Disorder", "assay": "Example 2: total sleep time (TST), polysomnography", "conditions": "Zolpidem ER 6.25 mg", "method": "In some embodiments, a sleep parameter is determined objectively using polysomnography. Polysomnography is the monitoring of multiple electrophysiological parameters during sleep and generally includes measurement of EEG activity, electro-oculographic activity and electromyographic activity, as well as other measurements.\nTST—total sleep time: minutes of sleep from sleep onset until terminal awakening.\nas §2\nWithin 5 minutes of the subject's mean habitual bedtime, study drug was administered and an overnight polysomnogram recording was initiated. At completion of the recording the following morning (Day 2), postural stability and cognitive performance were assessed. On the Day 2 evening, subjects returned to the clinic and a blood sample was collected before administering study drug, and then study drug was administered within 5 minutes of the subject's mean habitual bedtime. Again, a polysomnogram recording was initiated. The next morning (Day 3), postural stability and cognitive performance were assessed. A blood sample was also collected.\nOn Day 29, subjects returned to the clinic. Study drug was administered within 5 minutes of the subject's mean habitual bedtime and a polysomnogram recording was conducted. On the following morning (Day 30), postural stability and cognitive performance were assessed. After 1.5 hours of waketime, subjects rated their morning sleepiness level.\nOn the evening of Day 30, subjects returned to the clinic. A pre-dose blood sample was collected and study drug was again administered within 5 minutes of the subject's mean habitual bedtime. A polysomnogram recording was initiated. The following morning (Day 31), postural stability and cognitive performance were assessed and a blood sample was obtained. The ISI, FSS, EQ-5D-3L and PGI-Insomnia were administered. Blood and urine samples were collected for routine safety assessment. An electrocardiogram was performed, and vital signs and weight were assessed. The eC-SSRS was then administered to the subject. At 1.5 hours after waketime, subjects rated their morning sleepiness level."}}}
{"compound": "Cc1ccc(-c2nc3ccc(C)cn3c2CC(=O)N(C)C)cc1", "note": "[Zolpidem ER, zolpidem, reference compound]", "values": [{"measurement": "Subjective Sleep Efficiency, Change from Study Baseline, Mean (SD)", "setting": "[1]; First 7 Nights of Treatment", "value": "11.96 (12.526)"}, {"measurement": "Subjective Sleep Efficiency, Mean (SD)", "setting": "[1]; First 7 Nights of Treatment", "value": "66.45 (16.419)"}, {"measurement": "Subjective Sleep Efficiency, Model-adjusted change from baseline", "setting": "[1]; First 7 Nights of Treatment", "value": 12.11}, {"measurement": "Subjective Sleep Efficiency, Change from Study Baseline, Mean (SD)", "setting": "[1]; Last 7 Nights of Treatment", "value": "14.83 (15.011)"}, {"measurement": "Subjective Sleep Efficiency, Mean (SD)", "setting": "[1]; Last 7 Nights of Treatment", "value": "69.45 (16.925)"}, {"measurement": "Subjective Sleep Efficiency, Model-adjusted change from baseline", "setting": "[1]; Last 7 Nights of Treatment", "value": 14.82}, {"measurement": "Subjective Total Sleep Time, Change from Study Baseline, Mean (SD)", "setting": "[2]; First 7 Nights of Treatment", "value": "56.99 (62.880)"}, {"measurement": "Subjective Total Sleep Time, Mean (SD)", "setting": "[2]; First 7 Nights of Treatment", "value": "325.64 (81.845)"}, {"measurement": "Subjective Total Sleep Time, Model-adjusted change from baseline", "setting": "[2]; First 7 Nights of Treatment", "value": 57.71}, {"measurement": "Subjective Total Sleep Time, Change from Study Baseline, Mean (SD)", "setting": "[2]; Last 7 Nights of Treatment", "value": "71.01 (76.574)"}, {"measurement": "Subjective Total Sleep Time, Mean (SD)", "setting": "[2]; Last 7 Nights of Treatment", "value": "340.20 (83.582)"}, {"measurement": "Subjective Total Sleep Time, Model-adjusted change from baseline", "setting": "[2]; Last 7 Nights of Treatment", "value": 71.04}, {"measurement": "Congenital anomaly/birth defect", "setting": "[3]", "value": "0 n (%)"}, {"measurement": "Deaths", "setting": "[3]", "value": "0 n (%)"}, {"measurement": "Life threatening", "setting": "[3]", "value": "0 n (%)"}, {"measurement": "Other SAEs", "setting": "[3]", "value": "4 (1.5) n (%)"}, {"measurement": "Persistent or significant disability or incapacity", "setting": "[3]", "value": "0 n (%)"}, {"measurement": "Requires inpatient hospitalization or prolongation of existing hospitalization", "setting": "[3]", "value": "4 (1.5) n (%)"}, {"measurement": "Serious TEAEs", "setting": "[3]", "value": "4 (1.5) n (%)"}, {"measurement": "Severe TEAEs", "setting": "[3]", "value": "8 (3.0) n (%)"}, {"measurement": "TEAEs", "setting": "[3]", "value": "93 (35.4) n (%)"}, {"measurement": "TEAEs leading to study dose reduced", "setting": "[3]", "value": "0 n (%)"}, {"measurement": "TEAEs leading to study drug dose adjustment", "setting": "[3]", "value": "8 (3.0) n (%)"}, {"measurement": "TEAEs leading to study drug interrupted", "setting": "[3]", "value": "2 (0.8) n (%)"}, {"measurement": "TEAEs leading to study drug withdrawal", "setting": "[3]", "value": "7 (2.7) n (%)"}, {"measurement": "Treatment-related TEAEs", "setting": "[3]", "value": "40 (15.2) n (%)"}, {"measurement": "Total Sleep Time, Change from Study Baseline, Mean (SD)", "setting": "[4]; Days 1/2", "value": "55.31 (48.138)"}, {"measurement": "Total Sleep Time, Change from Study Baseline, Median", "setting": "[4]; Days 1/2", "value": 52.00}, {"measurement": "Total Sleep Time, Mean (SD)", "setting": "[4]; Days 1/2", "value": "382.42 (41.528)"}, {"measurement": "Total Sleep Time, Median", "setting": "[4]; Days 1/2", "value": 387.25}, {"measurement": "Total Sleep Time, Change from Study Baseline, Mean (SD)", "setting": "[4]; Days 29/30", "value": "43.34 (54.012)"}, {"measurement": "Total Sleep Time, Change from Study Baseline, Median", "setting": "[4]; Days 29/30", "value": 39.63}, {"measurement": "Total Sleep Time, Mean (SD)", "setting": "[4]; Days 29/30", "value": "370.25 (48.855)"}, {"measurement": "Total Sleep Time, Median", "setting": "[4]; Days 29/30", "value": 377.75}]}
